Measurements published in patent US5126336A, “Antibiotic C-3 catechol-substituted cephalosporin compounds, compositions and method of use thereof” (Bristol-Myers Squibb Company, priority 1990, dated 1992).
≈ marks a conversion by molar mass, not a printed value.

Key:
Assay type in all cases: cell-based
[1] = test system: Gn-II: M.morganii (1), Ent. cloacae (2) and Ser. marcescens (2); experiment: MIC, two-fold serial agar dilution, Gn-II; settings: Gn-II, 5 strains; Mueller-Hinton agar; read-out: Geometric mean of MIC
Experimental: (§1) Minimum inhibitory concentrations (MICs) of the present series of cephalosporins were determined against 32 strains of test organisms by two-fold serial agar dilution method in Mueller-Hinton agar. Geometric means of MICs were calculated against six groups of the test organisms which are classified as follows and summarized in Table 1.
Gn-II M.morganii (1), Ent. cloacae (2) and Ser.

[2] = test system: Gp-Ib: Penicillin(PC)-resistant S. aureus (5); experiment: MIC, two-fold serial agar dilution, Gp-Ib; settings: Staphylococcus aureus, 5 strains, Mueller-Hinton agar, read-out: Geometric mean of MIC
Experimental: as §1
Gp-Ib Penicillin(PC)-resistant S. aureus (5).

[3] = test system: Gn-III: Ps. aeruginosa (7); experiment: MIC, two-fold serial agar dilution, Gn-III; settings: Pseudomonas aeruginosa, Gn-III, 7 strains; Mueller-Hinton agar; read-out: Geometric mean of MIC
Experimental: as §1
Gn-III Ps. aeruginosa (7).

[4] = test system: Gp-Ia: Penicillin(PC)-sensitive S. aureus (5 strains); experiment: MIC, two-fold serial agar dilution, Gp-Ia; settings: Staphylococcus aureus, Mueller-Hinton agar, read-out: Geometric mean of MIC
Experimental: as §1
Gp-Ia Penicillin(PC)-sensitive S. aureus (5 strains).

[5] = test system: Gn-Ia: Cephalothin(CET)-sensitive E. coli (2), Kl. pneumoniae (1) and Pr. mirabilis (2); experiment: MIC, two-fold serial agar dilution, Gn-Ia; settings: 5 strains, Mueller-Hinton agar, read-out: Geometric mean of MIC
Experimental: as §1
Gn-Ia Cephalothin(CET)-sensitive E. coli (2), Kl.
pneumoniae (1) and Pr. mirabilis (2).

[6] = test system: Gn-Ib: Cephalothin(CET)-resistant E. coli (3) and Kl. pneumoniae (2); experiment: MIC, two-fold serial agar dilution, Gn-Ib; settings: Escherichia coli, read-out: Geometric mean of MIC, Gn-Ib, 5 strains; Mueller-Hinton agar
Experimental: as §1
Gn-Ib Cephalothin(CET)-resistant E. coli (3) and Kl.

C. freundii GN 7391 = experiment: MIC, agar dilution; settings: Citrobacter freundii, GN7391, Mueller-Hinton agar pH 7.2, 32° C., 18 hr, 10^6 cells/ml
Experimental: as §1
(§2) Medium; MuellerHinton agar (pH = 7.2)
(§3) Incubation temperature: 32° C., 18 hr
(§4) Inoculum size; 10^6 cells/ml

P. aeruginosa A20599 = experiment: MIC, agar dilution; settings: Pseudomonas aeruginosa, Mueller-Hinton agar pH 7.2, 32° C., 18 hr, 10^6 cells/ml
Experimental: as §1, §2, §3, §4

M. morgani 1510/9 = experiment: MIC, agar dilution; settings: Mueller-Hinton agar pH 7.2, 32° C., 18 hr, 10^6 cells/ml
Experimental: as §1, §2, §3, §4

P. aeruginosa KKA 19 = experiment: MIC, agar dilution; settings: Pseudomonas aeruginosa, KKA19, Mueller-Hinton agar pH 7.2, 32° C., 18 hr, 10^6 cells/ml
Experimental: as §1, §2, §3, §4

S. epidermidis 11-1230 = experiment: MIC, agar dilution; settings: Staphylococcus epidermidis, 111230, Mueller-Hinton agar pH 7.2, 32° C., 18 hr, 10^6 cells/ml
Experimental: as §1, §2, §3, §4

P. vulgaris IPM-13 = experiment: MIC, agar dilution; settings: Proteus vulgaris, IPM13, Mueller-Hinton agar pH 7.2, 32° C., 18 hr, 10^6 cells/ml
Experimental: as §1, §2, §3, §4

E. faecium A24817 = experiment: MIC, agar dilution; settings: Enterococcus faecium, Mueller-Hinton agar pH 7.2, 32° C., 18 hr, 10^6 cells/ml
Experimental: as §1, §2, §3, §4

P. cepacia A21213 = experiment: MIC, agar dilution; settings: Burkholderia cepacia, Mueller-Hinton agar pH 7.2, 32° C., 18 hr, 10^6 cells/ml
Experimental: as §1, §2, §3, §4

P. aeruginosa IPM-8 = experiment: MIC, agar dilution; settings: Pseudomonas aeruginosa, IPM8, Mueller-Hinton agar pH 7.2, 32° C., 18 hr, 10^6 cells/ml
Experimental: as §1, §2, §3, §4

S. aureus 4-1015 (MRSA) = experiment: MIC, agar dilution; settings: Staphylococcus aureus, Mueller-Hinton agar pH 7.2, 32° C., 18 hr, 10^6 cells/ml
Experimental: as §1, §2, §3, §4

S. aureus IPM-24 (MRSA) = experiment: MIC, agar dilution; settings: Staphylococcus aureus, Mueller-Hinton agar pH 7.2, 32° C., 18 hr, 10^6 cells/ml
Experimental: as §1, §2, §3, §4

P. cepacia No. 651 = experiment: MIC, agar dilution; settings: Burkholderia cepacia, Mueller-Hinton agar pH 7.2, 32° C., 18 hr, 10^6 cells/ml
Experimental: as §1, §2, §3, §4

K. pneumoniae PCI 602 = experiment: MIC, agar dilution; settings: Klebsiella pneumoniae, PCI602, Mueller-Hinton agar pH 7.2, 32° C., 18 hr, 10^6 cells/ml
Experimental: as §1, §2, §3, §4

P. aeruginosa IPM-9 = experiment: MIC, agar dilution; settings: Pseudomonas aeruginosa, IPM9, Mueller-Hinton agar pH 7.2, 32° C., 18 hr, 10^6 cells/ml
Experimental: as §1, §2, §3, §4

E. faecalis A9808 = experiment: MIC, agar dilution; settings: Enterococcus faecalis, Mueller-Hinton agar pH 7.2, 32° C., 18 hr, 10^6 cells/ml
Experimental: as §1, §2, §3, §4

S. aureus 209P = experiment: MIC, agar dilution; settings: Staphylococcus aureus; S. aureus 209P; Mueller-Hinton agar pH 7.2; 32° C., 18 hr; 10^6 cells/ml; read-out: MIC
Experimental: as §1, §2, §3, §4

P. rettgeri IPM-14 = experiment: MIC, agar dilution; settings: Providencia rettgeri, IPM14, Mueller-Hinton agar pH 7.2, 32° C., 18 hr, 10^6 cells/ml
Experimental: as §1, §2, §3, §4

S. marcescens IPM-15 = experiment: MIC, agar dilution; settings: Serratia marcescens, IPM15, Mueller-Hinton agar pH 7.2, 32° C., 18 hr, 10^6 cells/ml
Experimental: as §1, §2, §3, §4

X. maltophilia GN 12873 = experiment: MIC, agar dilution; settings: Stenotrophomonas maltophilia, GN12873, Mueller-Hinton agar pH 7.2, 32° C., 18 hr, 10^6 cells/ml
Experimental: as §1, §2, §3, §4

S. marcescens IPM-16 = experiment: MIC, agar dilution; settings: Serratia marcescens, IPM16, Mueller-Hinton agar pH 7.2, 32° C., 18 hr, 10^6 cells/ml
Experimental: as §1, §2, §3, §4

B. subtilis PCI 219 = experiment: MIC, agar dilution; settings: Bacillus subtilis, PCI219, Mueller-Hinton agar pH 7.2, 32° C., 18 hr, 10^6 cells/ml
Experimental: as §1, §2, §3, §4

E. cloacae IPM-12 = experiment: MIC, agar dilution; settings: Enterobacter cloacae, IPM12, Mueller-Hinton agar pH 7.2, 32° C., 18 hr, 10^6 cells/ml
Experimental: as §1, §2, §3, §4

M. morgani 1510 = experiment: MIC, agar dilution; settings: Mueller-Hinton agar pH 7.2, 32° C., 18 hr, 10^6 cells/ml
Experimental: as §1, §2, §3, §4

E. coli 255 = experiment: MIC, agar dilution; settings: Escherichia coli, Mueller-Hinton agar pH 7.2, 32° C., 18 hr, 10^6 cells/ml
Experimental: as §1, §2, §3, §4

M. luteus 1001 = experiment: MIC, agar dilution; settings: Micrococcus luteus, Mueller-Hinton agar pH 7.2, 32° C., 18 hr, 10^6 cells/ml
Experimental: as §1, §2, §3, §4

C. terrigena IFO 12685 = experiment: MIC, agar dilution; settings: Mueller-Hinton agar pH 7.2, 32° C., 18 hr, 10^6 cells/ml
Experimental: as §1, §2, §3, §4

X. maltophilia No. 661 = experiment: MIC, agar dilution; settings: Stenotrophomonas maltophilia, Mueller-Hinton agar pH 7.2, 32° C., 18 hr, 10^6 cells/ml
Experimental: as §1, §2, §3, §4

P. mirabilis IFO-2849 = experiment: MIC, agar dilution; settings: Proteus mirabilis, IFO2849, Mueller-Hinton agar pH 7.2, 32° C., 18 hr, 10^6 cells/ml
Experimental: as §1, §2, §3, §4

P. aeruginosa A9843A = experiment: MIC, agar dilution; settings: Pseudomonas aeruginosa, A9843A, 18 h, pH 7.2
Experimental: as §1
(§5) In vivo antibacterial activity was determined against three bacterial infections (S. aureus Smith, E. coli Juhl and P. aeruginosa A9843A) by intramuscular administration to mice just after the bacterial challenge. PD50 values are summarized in Table 3 in comparsion with the MIC values against the corresponding organisms.
as §2, §3, §4

E. coli Juhl A15119 = experiment: MIC, agar dilution; settings: Escherichia coli, JUHLA15119; E. coli Juhl A15119; Mueller-Hinton agar pH 7.2; 32° C., 18 hr; 10^6 cells/ml; read-out: MIC
Experimental: as §1, §5, §2, §3, §4

S. aureus Smith = experiment: MIC, agar dilution; settings: Staphylococcus aureus; S. aureus Smith; Mueller-Hinton agar pH 7.2; 32° C., 18 hr; 10^6 cells/ml; read-out: MIC
Experimental: as §1, §5, §2, §3, §4

`C[N+]1(C/C=C/C2=C(C(=O)[O-])N3C(=O)C(NC(=O)/C(=N\OCC(=O)O)c4csc(N)n4)C3SC2)Cc2cc(O)c(O)cc2C1` (stereo not shown) [Ih, 7-[(Z)-2-(2-Aminothiazol-4-yl)-2-carboxymethoxyimino-acetamido]-3-[3-(E)-(5,6-hydroxy-2-methyl-2-isoindolinio)-1-propen-1-yl]-3-cephem-4-carboxylate] was tested, and the MIC [1] was 1.1 µg/mL (≈ 1.74 µM), the MIC [2] was 12.5 µg/mL (≈ 19.8 µM) and the MIC [3] was 0.49 µg/mL (≈ 0.777 µM). It also gave an MIC [4] of 7.2 µg/mL (≈ 11.4 µM), an MIC [5] of 0.2 µg/mL (≈ 0.317 µM) and an MIC [6] of 0.4 µg/mL (≈ 0.634 µM).
Compound `Nc1nc(/C(=N/O)C(=O)NC2C(=O)N3C(C(=O)[O-])=C(/C=C/C[n+]4cc5cc(O)c(O)cc5cn4)CS[C@H]23)cs1` (stereo partly shown) [Ik, 7-[(Z)-2-(2-Aminothiazol-4-yl)-2-hydroxyimino-acetamido]-3-[(E)-3-(6,7-dihydroxyphthalazin-2-io)-1-propen--1-yl]-3-cephem-4-carboxylate] has an MIC (C. freundii GN 7391) greater than 100 µg/mL, an MIC (P. aeruginosa A20599) greater than 100 µg/mL and an MIC (M. morgani 1510/9) of 0.1 µg/mL (≈ 0.176 µM). For the same compound, the MIC (P. aeruginosa KKA 19) was greater than 100 µg/mL, the MIC (S. epidermidis 11-1230) was 1.6 µg/mL (≈ 2.81 µM) and the MIC (P. vulgaris IPM-13) was greater than 100 µg/mL. It also gave an MIC (E. faecium A24817) of 50 µg/mL (≈ 87.8 µM), an MIC (P. cepacia A21213) greater than 100 µg/mL and an MIC (P. aeruginosa IPM-8) greater than 100 µg/mL. The MIC (S. aureus 4-1015 (MRSA)) was 3.1 µg/mL (≈ 5.44 µM), the MIC (S. aureus IPM-24 (MRSA)) was 12.5 µg/mL (≈ 21.9 µM) and the MIC (P. cepacia No. 651) was 100 µg/mL (≈ 176 µM). For the same compound, the MIC (K. pneumoniae PCI 602) was 0.05 µg/mL (≈ 0.0878 µM), the MIC (P. aeruginosa IPM-9) was greater than 100 µg/mL and the MIC (E. faecalis A9808) was 6.3 µg/mL (≈ 11.1 µM). It also gave an MIC (S. aureus 209P) of 0.8 µg/mL (≈ 1.4 µM), an MIC (P. rettgeri IPM-14) of 1.6 µg/mL (≈ 2.81 µM) and an MIC (S. marcescens IPM-15) greater than 100 µg/mL. It also gave an MIC (X. maltophilia GN 12873) greater than 100 µg/mL, an MIC (S. marcescens IPM-16) greater than 100 µg/mL and an MIC (B. subtilis PCI 219) of 0.4 µg/mL (≈ 0.702 µM). The MIC (E. cloacae IPM-12) was greater than 100 µg/mL, the MIC (M. morgani 1510) was 6.3 µg/mL (≈ 11.1 µM) and the MIC (E. coli 255) was 0.2 µg/mL (≈ 0.351 µM). It also gave an MIC (M. luteus 1001) of 0.4 µg/mL (≈ 0.702 µM), an MIC (C. terrigena IFO 12685) of 0.8 µg/mL (≈ 1.4 µM) and an MIC (X. maltophilia No. 661) greater than 100 µg/mL. It also gave an MIC (P. mirabilis IFO-2849) of 0.2 µg/mL (≈ 0.351 µM), an MIC (P. aeruginosa A9843A) greater than 100 µg/mL and an MIC (E. coli Juhl A15119) of 0.4 µg/mL (≈ 0.702 µM). For the same compound, the MIC (S. aureus Smith) was 0.8 µg/mL (≈ 1.4 µM).
Compound `CC(C)(O/N=C(\C(=O)NC1C(=O)N2C(C(=O)[O-])=C(/C=C/C[N+](C)(C)CCc3ccc(O)c(O)c3)CS[C@H]12)c1csc(N)n1)C(=O)O` (stereo partly shown) [Iq, 7-[(Z)-2-(2-Aminothiazol-4-yl)-2-(1-carboxy-1-methylethoxy-imino)acetamido]-3-[(E)-3-(3,4-dihydroxyphenethyldimethyl-ammonio)-1-propen-1-yl]-3-cephem-4-carboxylate] has an MIC [1] of 0.8 µg/mL (≈ 1.19 µM), an MIC [2] of 25 µg/mL (≈ 37.1 µM) and an MIC [3] of 0.59 µg/mL (≈ 0.874 µM). The MIC [4] was 13 µg/mL (≈ 19.3 µM), the MIC [5] was 0.17 µg/mL (≈ 0.252 µM) and the MIC [6] was 0.13 µg/mL (≈ 0.193 µM).
